The values that follow come from patent US20230339970A1, “CASEIN KINASE 1 DELTA MODULATORS” (priority 2020, published 2023).

In experiment [1] the target is T1, human CSNK1D (Homo sapiens, UniProt P48730).
T1 construct: expressed in transfected cells
Kind of experiment: Whole Cell nBRET CSNK1D Binding Assay. The settings on record: living CHO cells stably expressing human CSNK1D tagged with nanoluciferase; NanoBret tracer 130 nM; 2 hours at 37 C.

The target of experiment [2] is T2, human recombinant GST cleaved CSNK1D (Homo sapiens, UniProt P48730).
T2 construct: GST (cleaved yes); purchased University of Dundee clone DU 19064
T2 sequence (P48730 whole entry): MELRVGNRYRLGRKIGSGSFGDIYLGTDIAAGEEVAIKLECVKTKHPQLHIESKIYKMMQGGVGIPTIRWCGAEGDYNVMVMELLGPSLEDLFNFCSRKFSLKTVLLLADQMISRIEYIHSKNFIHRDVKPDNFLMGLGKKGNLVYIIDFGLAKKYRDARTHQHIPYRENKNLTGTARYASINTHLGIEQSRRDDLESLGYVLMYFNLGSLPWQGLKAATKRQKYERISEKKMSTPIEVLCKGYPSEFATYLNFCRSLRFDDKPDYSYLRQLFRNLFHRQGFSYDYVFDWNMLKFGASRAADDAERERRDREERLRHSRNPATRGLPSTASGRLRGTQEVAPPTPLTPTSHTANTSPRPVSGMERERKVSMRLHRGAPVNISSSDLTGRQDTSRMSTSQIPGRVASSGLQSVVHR
Kind of experiment: Purified Enzyme Assay (ADP-Glo CSNK1D Kinase Assay). Format: biochemical. The settings on record: 2 nM CSNK1D; peptide substrate 150 μM; ATP 20 μM; 45 minutes at room temperature. A digest of the protocol:
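GST-cleaved human recombinant CSNK1D phosphorylates peptide PLSRTL-pS-VASLPGL with ATP; compounds added in dose-response, 45 min at room temperature. ADP formed measured by ADP-Glo luminescence and converted to percent activity.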
(In general: In ADP-Glo the light output rises with the ADP produced.)

SMILES strings stand for the structures. pIC50: −log10 of the molar value.

T1 sequence (P48730 whole entry): as above

Broadly, the pIC50 is the negative decadic logarithm of the IC50, by convention in mol/L. For the compound `Fc1ccc(-c2nn3c(c2-c2c(F)cnc4[nH]ccc24)CCCC3)nc1` [Example 34, 5-Fluoro-4-[2-(5-fluoro-2-pyridyl)-4,5,6,7-tetrahydropyrazolo[1,5-a]pyridin-3-yl]-1H-pyrrolo[2,3-b]pyridine], the pIC50 is 7.11 in experiment [1] and 8.10 in experiment [2].
For `Fc1ccc(-c2nn3c(c2-c2ccnc4[nH]ncc24)[C@@H](Cl)C[C@]2(C3)CC2(F)F)nc1` (single isomer, unassigned) [Example 337, (1*S,4′*S)-4′-Chloro-2,2-difluoro-2′-(5-fluoropyridin-2-yl)-3′-(1H-pyrazolo[3,4-b]pyridin-4-yl)-4′,5′-dihydro-7′H-spiro[cyclopropane-1,6′-pyrazolo[1,5-a]pyridine]], in that order: 7.10 and 8.52.
For `Cc1cc(-c2c(-c3ccc(F)cc3)nn3c2C[C@@]2(C3)CC2(F)F)c2cn[nH]c2n1` (single isomer, unassigned) [Example 252, (*S)-1′,1′-Difluoro-2-(4-fluorophenyl)-3-(6-methyl-1H-pyrazolo[3,4-b]pyridin-4-yl)spiro[4,6-dihydropyrrolo[1,2-b]pyrazole-5,2′-cyclopropane]] the same measures were 8.52 and 8.70.
With `Fc1ccc(-c2nn3c(c2-c2c(F)cnc4[nH]ncc24)C[C@@H]2C[C@@H]23)nc1` [Example 272, (4aS,5aS)-3-(5-Fluoro-1H-pyrazolo[3,4-b]pyridin-4-yl)-2-(5-fluoropyridin-2-yl)-4,4a,5,5a-tetrahydrocyclopropa[4,5]pyrrolo[1,2-b]pyrazole], the pIC50 in experiment [1] was 7.15; in experiment [2] it was 8.70.
Regarding `Fc1ccc(-c2nn3c(c2-c2ccnc4[nH]ncc24)COC2(C3)CC2(F)F)nc1` (single isomer, unassigned) [Example 433, (*R)-1′. 1′-Difluoro-2-(5-fluoro-2-pyridyl)-3-(1H-pyrazolo[3,4-b]pyridin-4-yl)spiro[4,7-dihydropyrazolo[5,1-c][1,4]oxazine-6,2′-cyclopropane]], the pIC50 in experiment [1] is 7.10; in experiment [2], 8.40.
With `C[C@H]1OCc2c(-c3ccnc4[nH]ncc34)c(-c3ccc(F)cn3)nn2[C@H]1C` (single isomer, unassigned) [Example 116, (6*R,7*S)-2-(5-Fluoropyridin-2-yl)-6,7-dimethyl-3-(1H-pyrazolo[3,4-b]pyridin-4-yl)-6,7-dihydro-4H-pyrazolo[5,1-c][1,4]oxazine], the pIC50 in experiment [1] was 6.03; in experiment [2] it was 7.42.
For `Fc1ccc(-c2nn3c(c2-c2ccnc4[nH]nc(Cl)c24)C[C@@H]2C[C@@H]23)nc1` [Example 271, (4aS,5aS)-3-(3-Chloro-1H-pyrazolo[3,4-b]pyridin-4-yl)-2-(5-fluoropyridin-2-yl)-4,4a,5,5a-tetrahydrocyclopropa[4,5]pyrrolo[1,2-b]pyrazole], in that order: 8.40 and 8.70.
For `Cc1nc2[nH]ncc2c(-c2c(-c3ccc(F)cn3)nn3c2CO[C@](C)(C(F)(F)F)C3)c1F` (single isomer, unassigned) [Example 421, (*S)-3-(5-Fluoro-6-methyl-1H-pyrazolo[3,4-b]pyridin-4-yl)-2-(5-fluoropyridin-2-yl)-6-methyl-6-(trifluoromethyl)-6,7-dihydro-4H-pyrazolo[5,1-c][1,4]oxazine], in that order: 6.17 and 7.44.
For `Cc1cc(-c2c(-c3ccc(F)cn3)nn3c2CC2(C3)CC2(F)F)c2cn[nH]c2n1` (single isomer, unassigned) [Example 261, (*R)-1′,1′-Difluoro-2-(5-fluoro-2-pyridyl)-3-(6-methyl-1H-pyrazolo[3,4-b]pyridin-4-yl)spiro[4,6-dihydropyrrolo[1,2-b]pyrazole-5,2′-cyclopropane]] the same measures were 5.57 and 7.20.
Turning to `[2H]C([2H])([2H])C1(C([2H])([2H])[2H])Cn2nc(-c3ccc(F)cn3)c(-c3ccnc4[nH]nc(Cl)c34)c2CO1` [Example 400, 3-(3-Chloro-1H-pyrazolo[3,4-b]pyridin-4-yl)-2-(5-fluoropyridin-2-yl)-6,6-bis(methyl-d3)-6,7-dihydro-4H-pyrazolo[5,1-c][1,4]oxazine], the values for the pIC50 in experiment [1] and in experiment [2] were 7.52 and 8.40, respectively.
On to `[2H]C([2H])([2H])C1(C([2H])([2H])[2H])Cc2c(-c3c(F)cnc4[nH]ncc34)c(-c3ccc(F)cn3)nn2C1` [Example 243, 5-Fluoro-4-[2-(5-fluoro-2-pyridyl)-5,5-bis(methyl-d3)-4,6-dihydropyrrolo[1,2-b]pyrazol-3-yl]-1H-pyrazolo[3,4-b]pyridine], for which the pIC50 in experiment [1] was 7.31; in experiment [2] it was 8.52.
For `Nc1cc(-c2c(-c3ccc(F)cc3)nn3c2C[C@H](F)C3)ccn1` [Example 10, (S)-4-(5-Fluoro-2-(4-fluorophenyl)-5,6-dihydro-4H-pyrrolo[1,2-b]pyrazol-3-yl)pyridin-2-amine], in that order: 7.85 and 9.00.
For `Cc1cc(-c2c(-c3ccc(F)cc3)nn3c2OCC2(C3)CC2(F)F)c2cn[nH]c2n1` (single isomer, unassigned) [Example 474, *S-2,2-Difluoro-2′-(4-fluorophenyl)-3′-6-methyl-1H-pyrazolo[3,4-b]pyridin-4-yl)-5′H,7′H-spiro[cyclopropane-1,6′-pyrazolo[5,1-b][1,3]oxazine]] the same measures were 8.70 and 9.00.
For `FCC1Cn2nc(-c3ccc(F)cc3)c(-c3ccnc4[nH]ncc34)c2CO1` (single isomer, unassigned) [Example 105, (*R)-(Fluoromethyl)-2-(4-fluorophenyl)-3-(1H-pyrazolo[3,4-b]pyridin-4-yl)-6,7-dihydro-4H-pyrazolo[5,1-c][1,4]oxazine] the same measures were 7.34 and 8.40.
For the compound `Cc1cc(-c2c(-c3ccc(F)cc3)nn3c2C2CCC3CC2)c2cn[nH]c2n1` [Example 66, 2-(4-Fluorophenyl)-3-(6-methyl-1H-pyrazolo[3,4-b]pyridin-4-yl)-4,5,6,7-tetrahydro-4,7-ethanopyrazolo[1,5-a]pyridine], the pIC50 was 8.40 in experiment [1] and 8.70 in experiment [2].
For `CC1(C)Cn2nc(-c3ccc(F)cn3)c(-c3ccn4nccc4c3)c2CO1` [Example 140, 2-(5-Fluoropyridin-2-yl)-6,6-dimethyl-3-(pyrazolo[1,5-a]pyridin-5-yl)-6,7-dihydro-4H-pyrazolo[5,1-c][1,4]oxazine] the same measures were 6.91 and 7.74.
`Cc1nc2[nH]ncc2c(-c2c(-c3ccc(F)cn3)nn3c2OC[C@@H]2C[C@@H]2C3)c1F` (stereo in doubt) [Example 483, (5a*S,6a*R)-3-(5-Fluoro-6-methyl-1H-pyrazolo[3,4-b]pyridin-4-yl)-2-(5-fluoropyridin-2-yl)-5a,6,6a,7-tetrahydro-5H-cyclopropa[e]pyrazolo[5,1-b][1,3]oxazepine]: the pIC50 in experiment [1] is 7.32; in experiment [2], 8.30.
As for `Fc1ccc(-c2nn3c(c2-c2ccnc4[nH]nc(Cl)c24)OCC2(CC2)C3)nc1` [Example 458, 3′-(3-Chloro-1H-pyrazolo[3,4-b]pyridin-4-yl)-2′-(5-fluoropyridin-2-yl)-5′H,7′H-spiro[cyclopropane-1,6′-pyrazolo[5,1-b][1,3]oxazine]], the pIC50 in experiment [1] was 8.15; in experiment [2], 9.00.
For `CC1(C)Cn2nc(-c3ccc(F)cn3)c(-c3ccnc(NC(=O)CC(F)(F)F)c3)c2CO1` [Example 133, 3,3,3-Trifluoro-N-(4-(2-(5-fluoropyridin-2-yl)-6,6-dimethyl-6,7-dihydro-4H-pyrazolo[5,1-c][1,4]oxazin-3-yl)pyridin-2-yl)propenamide], in that order: 8.10 and 8.70.
For `CC1(C)Cn2nc(-c3ccc(F)cn3)c(-c3ccnc(NC(=O)C4CC4)c3)c2CO1` [Example 134, N-(4-(2-(5-Fluoropyridin-2-yl)-6,6-dimethyl-6,7-dihydro-4H-pyrazolo[5,1-c][1,4]oxazin-3-yl)pyridin-2-yl)cyclopropanecarboxamide] the same measures were 8.15 and 9.00.
For `[2H]C([2H])([2H])[C@]1(C(F)(F)F)Cn2nc(-c3ccc(F)cn3)c(-c3ccnc4[nH]ncc34)c2CO1` (single isomer, unassigned) [Example 423, (*R)-2-(5-Fluoropyridin-2-yl)-6-(methyl-d3)-3-(1H-pyrazolo[3,4-b]pyridin-4-yl)-6-(trifluoromethyl)-6,7-dihydro-4H-pyrazolo[5,1-c][1,4]oxazine], in that order: 5.80 and 7.17.
For `COc1cccc(-c2nn3c(c2-c2ccnc4[nH]ncc24)COC(C)(C)C3)n1` [Example 161, 2-(6-Methoxypyridin-2-yl)-6,6-dimethyl-3-(1H-pyrazolo[3,4-b]pyridin-4-yl)-6,7-dihydro-4H-pyrazolo[5,1-c][1,4]oxazine], the pIC50 in experiment [1] is 5.85; in experiment [2], 7.59.
For `Cc1nc2[nH]nc(Cl)c2c(-c2c(-c3ccc(F)cn3)nn3c2CCC3)c1F` [Example 224, 3-Chloro-5-fluoro-4-(2-(5-fluoropyridin-2-yl)-5,6-dihydro-4H-pyrrolo[1,2-b]pyrazol-3-yl)-6-methyl-1H-pyrazolo[3,4-b]pyridine], in that order: 8.30 and 8.40.
For `[2H]C([2H])([2H])C1(C([2H])([2H])[2H])CCc2c(-c3ccnc4[nH]ncc34)c(-c3ccc(F)cn3)nn2C1` [Example 283, 4-(2-(5-fluoropyridin-2-yl)-6,6-bis(methyl-d3)-4,5,6,7-tetrahydropyrazolo[1,5-a]pyridin-3-yl)-1H-pyrazolo[3,4-b]pyridine] the same measures were 8.15 and 8.70.
